One assay addresses T1, human recombinant PLK4 (Homo sapiens, UniProt O00444).
T1 construct: purchased ThermoFisher PV6396
T1 sequence (O00444 1-970): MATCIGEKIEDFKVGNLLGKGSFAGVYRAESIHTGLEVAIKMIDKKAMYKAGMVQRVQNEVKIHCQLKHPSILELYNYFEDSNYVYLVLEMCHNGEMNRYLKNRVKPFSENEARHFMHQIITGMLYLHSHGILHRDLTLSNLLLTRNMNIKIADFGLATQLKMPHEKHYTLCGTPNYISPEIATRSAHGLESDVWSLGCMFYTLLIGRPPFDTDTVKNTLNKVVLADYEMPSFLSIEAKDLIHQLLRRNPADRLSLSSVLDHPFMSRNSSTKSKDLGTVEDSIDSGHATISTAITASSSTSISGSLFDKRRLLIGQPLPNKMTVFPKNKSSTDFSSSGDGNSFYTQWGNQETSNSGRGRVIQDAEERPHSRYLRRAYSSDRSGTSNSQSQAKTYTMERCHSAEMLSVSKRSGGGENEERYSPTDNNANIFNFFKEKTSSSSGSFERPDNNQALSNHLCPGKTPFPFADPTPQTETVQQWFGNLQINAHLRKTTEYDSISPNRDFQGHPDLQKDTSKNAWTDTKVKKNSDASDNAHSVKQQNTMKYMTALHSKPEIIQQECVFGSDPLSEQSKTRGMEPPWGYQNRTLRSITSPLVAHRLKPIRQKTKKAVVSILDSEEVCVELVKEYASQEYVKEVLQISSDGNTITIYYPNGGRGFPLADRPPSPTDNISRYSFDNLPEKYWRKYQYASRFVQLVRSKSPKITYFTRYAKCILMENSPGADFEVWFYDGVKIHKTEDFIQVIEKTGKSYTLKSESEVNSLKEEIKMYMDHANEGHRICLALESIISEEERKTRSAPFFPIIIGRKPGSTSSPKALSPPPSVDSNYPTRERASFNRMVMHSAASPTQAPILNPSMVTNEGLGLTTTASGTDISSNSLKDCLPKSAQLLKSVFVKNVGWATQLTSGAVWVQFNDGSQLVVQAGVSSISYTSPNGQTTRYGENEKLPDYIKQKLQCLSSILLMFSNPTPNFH
The assay can be described thus: PLK4 Biochemical Assay (ADP-Glo). The settings on record: 0.5 nM PLK4, 8.0 μM ATP, 4.7 μM MBP, 6 hours at RT. As to the method:
Activity of human recombinant PLK4 (ThermoFisher, cat #PV6396) was measured by quantification of adenosine diphosphate (ADP) using the ADP-Glo Kinase Assay Kit (Promega, cat #V9102). […] 5 μL of 1.0 nM PLK4 protein in assay buffer (50 mM HEPES, pH 7.5, 0.01% Brij-35, 0.01% BSA, 10 mM MgCl2, 1 mM EGTA, 1 mM DTT) was added to the plates. Test compounds and PLK4 were incubated for 15 minutes at room temperature (RT). […] Reactions were stopped and the remaining ATP depleted by adding 10 μL of ADP-Glo reagent (Promega, cat #V912B) and incubating for 40 minutes at RT. The simultaneous conversion of the remaining ADP to ATP and measurement of the newly synthesized ATP was achieved by addition of 20 μL Kinase Detection reagent (Promega, cat #V914B), incubation for 30 min at RT, and luminescence detection using the EnVision plate reader (PerkinElmer). […] The IC50 values reported in Table 2 were determined using four parameter non-linear regression curve fit.
Background: In ADP-Glo the light output rises with the ADP produced.

Assay [1] deals with T2, human recombinant Aurora A (Homo sapiens, UniProt O14965).
T2 construct: purchased ThermoFisher PR5935A
T2 sequence (O14965 1-403): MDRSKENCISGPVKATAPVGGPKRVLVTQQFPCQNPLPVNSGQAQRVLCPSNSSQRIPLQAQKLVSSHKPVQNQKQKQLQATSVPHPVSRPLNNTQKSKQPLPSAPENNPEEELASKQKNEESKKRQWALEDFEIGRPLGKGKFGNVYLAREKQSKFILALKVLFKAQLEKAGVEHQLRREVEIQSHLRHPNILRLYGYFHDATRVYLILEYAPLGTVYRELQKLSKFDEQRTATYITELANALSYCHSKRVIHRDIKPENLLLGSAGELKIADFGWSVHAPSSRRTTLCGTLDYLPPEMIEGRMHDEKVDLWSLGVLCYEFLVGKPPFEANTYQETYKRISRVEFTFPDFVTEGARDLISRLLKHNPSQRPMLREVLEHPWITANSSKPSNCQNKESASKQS
Kind of assay: Aurora A Kinase Biochemical Assay (ADP-Glo). Particulars: selectivity ratio; Aurora A 2.5 nM, 20 μM ATP. The procedure:
Activity of human recombinant Aurora A (ThermoFisher, cat #PR5935A) was measured by quantification of adenosine diphosphate (ADP) using the ADP-Glo Kinase Assay Kit (Promega, cat #V9102). Test compounds were solubilized in dimethyl sulfoxide (DMSO) and dispensed into 384-well white polystyrene nonbinding plates (Greiner, cat #781094) using the Echo acoustic dispenser (Labcyte Inc.) in a 11-point 3-fold titration in duplicates. 5 μL of 5.0 nM Aurora A in assay buffer (50 mM HEPES, pH 7.5, 0.01% Brij-35, 0.01% BSA, 10 mM MgCl2, 1 mM EGTA, 1 mM DTT) was added to the plates. Test compounds and Aurora A were incubated for 15 minutes at room temperature (RT). Then 5 μL of a 40 μM adenosine triphosphate (ATP) (Promega, cat #V915B) and 9.3 μM Myelin Basic Protein (MBP) (SignalChem, cat #M42-51N) substrate solution in assay buffer was added and the reaction mixture was incubated for 2 hours at RT. The final concentration of Aurora A, ATP and MBP in the reactions were 2.5 nM, 20 μM and 4.7 μM, respectively. Reactions were stopped and the remaining ATP depleted by adding 10 μL of ADP-Glo reagent (Promega, cat #V912B) and incubating for 40 minutes at RT. The simultaneous conversion of the remaining ADP to ATP and measurement of the newly synthesized ATP was achieved by addition of 20 μL Kinase Detection reagent (Promega, cat #V914B), incubation for 30 min at RT, and luminescence detection using the EnVision plate reader (PerkinElmer). Reactions lacking Aurora A were used as 100% inhibition controls. Reactions containing DMSO alone were used as 0% inhibition controls. The IC50 values reported in Table 2 were determined using four parameter non-linear regression curve fit.

For assay [2], the target named is T3, human recombinant Aurora B (Homo sapiens, UniProt Q96GD4).
T3 construct: purchased ThermoFisher PR9210B
Kind of assay: Aurora B Kinase Biochemical Assay (ADP-Glo). The settings on record: selectivity ratio; Aurora B 10 nM, 114 μM ATP. As to the method: Activity of human recombinant Aurora B (ThermoFisher, cat #PR9210B) was measured by quantification of adenosine diphosphate (ADP) using the ADP-Glo Kinase Assay Kit (Promega, cat #V9102). Test compounds were solubilized in dimethyl sulfoxide (DMSO) and dispensed into 384-well white polystyrene nonbinding plates (Greiner, cat #781094) using the Echo acoustic dispenser (Labcyte Inc.) in a 11-point 3-fold titration in duplicates. 5 μL of 20 nM Aurora B in assay buffer (50 mM HEPES, pH 7.5, 0.01% Brij-35, 0.01% BSA, 10 mM MgCl2, 1 mM EGTA, 1 mM DTT) was added to the plates. Test compounds and Aurora B were incubated for 15 minutes at room temperature (RT). Then 5 μL of a 228 μM adenosine triphosphate (ATP) (Promega, cat #V915B) and 9.3 μM Myelin Basic Protein (MBP) (SignalChem, cat #M42-51N) substrate solution in assay buffer was added and the reaction mixture was incubated for 2 hours at RT. The final concentration of Aurora b, ATP and MBP in the reactions were 10 nM, 114 μM and 4.7 μM, respectively. Reactions were stopped and the remaining ATP depleted by adding 10 μL of ADP-Glo reagent (Promega, cat #V912B) and incubating for 40 minutes at RT. The simultaneous conversion of the remaining ADP to ATP and measurement of the newly synthesized ATP was achieved by addition of 20 μL Kinase Detection reagent (Promega, cat #V9141B), incubation for 30 min at RT, and luminescence detection using the EnVision plate reader (PerkinElmer). Reactions lacking Aurora B were used as […]. Reactions containing DMSO alone were used as […]. The IC50 values reported in Table 2 were determined using four parameter non-linear regression curve fit.

A further assay deals with CHP134. Kind of assay: CHP134 CellTiter-Glo (CTG) Assay. It is filed as cell-based. Particulars: Homo sapiens, CHP-134, 120 h; viable cells by CellTiter-Glo after 5 days. As to the method: […] cells (DSMZ-German Collection of Microorganisms and Cell Cultures, Braunschweig Germany) were cultured in RPMI 1640 supplemented with 10% fetal bovine serum, penicillin (100 U/ml), 1% L-Glutamine and streptomycin ([…]). Cells were seeded (200 cells/well) in 384-well plates for 16 hours. On day two, nine serial 1:3 compound dilutions were made in DMSO in a 96-well plate. The compounds were then further diluted into growth media using a BRAVO robot (Agilent, Santa Clara, CA). The diluted compounds were then added to quadruplicate wells in the 384-well cell plate and incubated at 37° C. and 5% CO2. After 5 days, relative numbers of viable cells were measured by luminescence using CellTiter-Glo® (Promega) according to the manufacturer's instructions and read on a SPARK Multimode Microplate Reader (Tecan, Mannedorf Switzerland). The IC50 calculations for the values reported in Table 2 were carried out using Prism 6.0 software (GraphPad, San Diego).

The IC50 is the concentration that inhibits the measured activity by half.

T3 sequence (Q96GD4 whole entry): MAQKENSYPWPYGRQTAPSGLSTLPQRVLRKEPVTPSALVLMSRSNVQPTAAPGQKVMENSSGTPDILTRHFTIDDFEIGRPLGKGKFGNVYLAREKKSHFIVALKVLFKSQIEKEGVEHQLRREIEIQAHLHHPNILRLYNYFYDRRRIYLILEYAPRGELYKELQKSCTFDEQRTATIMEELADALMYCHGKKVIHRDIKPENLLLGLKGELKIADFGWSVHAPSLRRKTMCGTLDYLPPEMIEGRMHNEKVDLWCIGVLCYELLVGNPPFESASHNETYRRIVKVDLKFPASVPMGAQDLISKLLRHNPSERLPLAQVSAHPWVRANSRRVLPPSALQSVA

Consider `COc1ccc2c(c1)[C@]1(C[C@H]1c1ccc3c(Nc4cc(-c5cn(C)nc5OC)ccc4OC)n[nH]c3c1)C(=O)N2` [Example 36, (1R,2S)-5′-methoxy-2-{3-[2-methoxy-5-(3-methoxy-1-methyl-1H-pyrazol-4-yl)anilino]-1H-indazol-6-yl}spiro[cyclopropane-1,3′-indol]-2′(1′H)-one], for which the IC50 at human recombinant PLK4 was 2.29 nM. Further, the “[Aurora A IC50 (nM)]/[PLK4 IC50 (nM)]” value in assay [1] was 4350.9615. In addition, the “[Aurora B IC50 (nM)]/[PLK4 IC50 (nM)]” value in assay [2] came out at 12202.7972.
On to `COc1ccc2c(c1)[C@]1(C[C@H]1c1ccc3c(Nc4ccc(C5(N(C)C)COC5)cc4OC)n[nH]c3c1)C(=O)N2` [Example 9, (1R,2S)-2-(3-{4-[3-(dimethylamino)oxetan-3-yl]-2-methoxyanilino}-1H-indazol-6-yl)-5′-methoxyspiro[cyclopropane-1,3′-indol]-2′(1′H)-one], for which the IC50 stood at 0.862 nM at human recombinant PLK4 and 166 nM in the assay with CHP134.
With `COc1ccc2c(c1)[C@]1(C[C@H]1c1ccc3c(Nc4nc(-c5cncnc5)ncc4OC)n[nH]c3c1)C(=O)N2` [Example 25, (1R,2S)-5′-methoxy-2-{3-[(5-methoxy[2,5′-bipyrimidin]-4-yl)amino]-1H-indazol-6-yl}spiro[cyclopropane-1,3′-indol]-2′(1′H)-one], on human recombinant PLK4, the IC50 turned out to be 2.41 nM. Further, the “[Aurora A IC50 (nM)]/[PLK4 IC50 (nM)]” value in assay [1] was 934.8277. Also, the “[Aurora B IC50 (nM)]/[PLK4 IC50 (nM)]” value in assay [2] turned out to be 608.5512.
